Results on 22 compounds are retold here after ChEMBL document CHEMBL5291721, “A preclinical secondary pharmacology resource illuminates target-adverse drug reaction associations of marketed drugs” (Nat Commun, 2023).

SMILES strings stand for the structures.

In assay [1] the target is Gamma-aminobutyric acid receptor subunit alpha-1 (Rattus norvegicus, UniProt P62813).
The target in assay [2] is T1, Alpha-2C adrenergic receptor (Homo sapiens, UniProt P18825).
T1 sequence (P18825 whole entry): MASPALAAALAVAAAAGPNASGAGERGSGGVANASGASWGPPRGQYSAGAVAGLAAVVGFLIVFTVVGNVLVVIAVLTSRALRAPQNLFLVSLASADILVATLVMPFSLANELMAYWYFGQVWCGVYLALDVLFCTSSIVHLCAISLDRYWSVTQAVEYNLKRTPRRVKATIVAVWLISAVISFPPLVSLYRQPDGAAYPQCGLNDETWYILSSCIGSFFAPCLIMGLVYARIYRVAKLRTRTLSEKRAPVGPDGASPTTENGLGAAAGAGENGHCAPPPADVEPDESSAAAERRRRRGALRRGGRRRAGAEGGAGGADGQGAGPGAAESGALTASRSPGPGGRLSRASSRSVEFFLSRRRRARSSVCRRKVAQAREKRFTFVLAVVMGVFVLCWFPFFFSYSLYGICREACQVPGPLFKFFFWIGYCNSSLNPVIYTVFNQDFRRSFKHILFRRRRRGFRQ
It is filed as functional.

The target in assay [3] is T2, 5-hydroxytryptamine receptor 1A (Homo sapiens, UniProt P08908).
T2 sequence (P08908 whole entry): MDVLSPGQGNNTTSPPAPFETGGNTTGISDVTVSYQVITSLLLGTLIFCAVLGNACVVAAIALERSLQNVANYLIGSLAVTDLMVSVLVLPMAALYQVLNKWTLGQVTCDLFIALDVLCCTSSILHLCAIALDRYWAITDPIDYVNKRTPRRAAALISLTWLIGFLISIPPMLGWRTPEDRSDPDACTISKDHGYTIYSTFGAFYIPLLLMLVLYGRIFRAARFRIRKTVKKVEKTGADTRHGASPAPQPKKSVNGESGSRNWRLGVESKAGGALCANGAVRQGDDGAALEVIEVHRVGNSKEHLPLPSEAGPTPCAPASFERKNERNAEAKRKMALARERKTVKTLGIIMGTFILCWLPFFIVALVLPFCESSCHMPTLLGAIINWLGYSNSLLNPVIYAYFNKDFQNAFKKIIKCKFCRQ
It is filed as functional, cell-based.

Assay [4] has as its target 5-hydroxytryptamine receptor 2B (Homo sapiens, UniProt P41595). It counts as functional, cell-based.
In assay [5] the target is T3, Glucocorticoid receptor (Homo sapiens, UniProt P04150).
T3 sequence (P04150 whole entry): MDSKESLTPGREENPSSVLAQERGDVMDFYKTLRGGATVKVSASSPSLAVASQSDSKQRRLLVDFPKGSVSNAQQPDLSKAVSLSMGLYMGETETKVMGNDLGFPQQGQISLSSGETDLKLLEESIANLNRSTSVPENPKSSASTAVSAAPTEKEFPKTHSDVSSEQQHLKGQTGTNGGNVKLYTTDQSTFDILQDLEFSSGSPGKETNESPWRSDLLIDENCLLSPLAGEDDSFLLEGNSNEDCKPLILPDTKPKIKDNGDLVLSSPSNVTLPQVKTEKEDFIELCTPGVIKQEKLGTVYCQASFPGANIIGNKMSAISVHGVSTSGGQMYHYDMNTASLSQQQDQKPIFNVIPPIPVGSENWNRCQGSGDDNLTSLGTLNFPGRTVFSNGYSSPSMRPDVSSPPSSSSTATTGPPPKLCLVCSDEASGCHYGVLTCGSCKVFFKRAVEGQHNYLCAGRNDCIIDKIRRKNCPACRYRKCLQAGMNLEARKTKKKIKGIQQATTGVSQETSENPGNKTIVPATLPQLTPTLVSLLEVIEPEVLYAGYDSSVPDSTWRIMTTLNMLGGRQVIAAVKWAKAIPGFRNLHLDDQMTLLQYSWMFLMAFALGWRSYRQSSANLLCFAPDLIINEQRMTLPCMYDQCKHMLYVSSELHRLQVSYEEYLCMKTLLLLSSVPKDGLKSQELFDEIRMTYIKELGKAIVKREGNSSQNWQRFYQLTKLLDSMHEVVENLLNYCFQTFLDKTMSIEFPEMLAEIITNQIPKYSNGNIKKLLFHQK

In assay [6] the target is Delta-type opioid receptor (Homo sapiens, UniProt P41143).
In assay [7] the target is Kappa-type opioid receptor (Homo sapiens, UniProt P41145).
Assay [8] deals with T4, Equilibrative nucleoside transporter 1 (Homo sapiens, UniProt Q99808).
T4 sequence (Q99808 whole entry): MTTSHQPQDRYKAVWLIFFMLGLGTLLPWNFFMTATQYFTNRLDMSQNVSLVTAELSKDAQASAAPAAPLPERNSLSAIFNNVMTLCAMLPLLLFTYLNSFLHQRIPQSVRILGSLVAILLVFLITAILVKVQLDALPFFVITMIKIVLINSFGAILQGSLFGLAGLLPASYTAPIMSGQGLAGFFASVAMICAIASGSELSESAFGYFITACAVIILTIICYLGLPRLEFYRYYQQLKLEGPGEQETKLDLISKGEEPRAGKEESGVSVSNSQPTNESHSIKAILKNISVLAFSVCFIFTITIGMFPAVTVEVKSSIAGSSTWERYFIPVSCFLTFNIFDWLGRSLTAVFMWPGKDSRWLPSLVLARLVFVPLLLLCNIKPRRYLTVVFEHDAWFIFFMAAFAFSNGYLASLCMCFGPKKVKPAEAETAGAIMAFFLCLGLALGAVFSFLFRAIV

The target in assay [9] is cGMP-inhibited 3',5'-cyclic phosphodiesterase 3A (Homo sapiens, UniProt Q14432). It counts as functional.
Note: assay procedure not described here.

Chain of Gamma-aminobutyric acid receptor subunit alpha-1 (P62813 whole entry): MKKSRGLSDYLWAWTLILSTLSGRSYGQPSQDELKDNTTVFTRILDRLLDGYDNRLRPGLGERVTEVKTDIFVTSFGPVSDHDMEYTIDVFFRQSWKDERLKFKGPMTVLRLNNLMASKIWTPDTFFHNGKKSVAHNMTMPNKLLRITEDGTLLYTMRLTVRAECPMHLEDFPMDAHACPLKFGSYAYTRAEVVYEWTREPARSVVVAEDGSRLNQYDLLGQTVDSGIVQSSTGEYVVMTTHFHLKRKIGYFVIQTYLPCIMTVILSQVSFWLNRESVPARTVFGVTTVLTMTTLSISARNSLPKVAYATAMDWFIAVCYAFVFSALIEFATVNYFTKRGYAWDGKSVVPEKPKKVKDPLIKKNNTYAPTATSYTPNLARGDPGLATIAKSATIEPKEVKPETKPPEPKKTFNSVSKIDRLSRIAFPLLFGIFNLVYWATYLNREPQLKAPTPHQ
Chain of Kappa-type opioid receptor (P41145 whole entry): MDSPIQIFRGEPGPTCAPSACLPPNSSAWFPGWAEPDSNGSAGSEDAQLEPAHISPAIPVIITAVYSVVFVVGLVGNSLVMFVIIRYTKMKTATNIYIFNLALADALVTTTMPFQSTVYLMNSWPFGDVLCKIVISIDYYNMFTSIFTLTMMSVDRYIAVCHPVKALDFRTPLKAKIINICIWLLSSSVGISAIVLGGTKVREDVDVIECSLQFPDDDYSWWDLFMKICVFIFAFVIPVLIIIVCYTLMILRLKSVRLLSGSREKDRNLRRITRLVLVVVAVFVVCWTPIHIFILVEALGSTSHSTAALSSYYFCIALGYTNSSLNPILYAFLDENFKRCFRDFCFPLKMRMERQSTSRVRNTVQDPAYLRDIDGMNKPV
Chain of Delta-type opioid receptor (P41143 whole entry): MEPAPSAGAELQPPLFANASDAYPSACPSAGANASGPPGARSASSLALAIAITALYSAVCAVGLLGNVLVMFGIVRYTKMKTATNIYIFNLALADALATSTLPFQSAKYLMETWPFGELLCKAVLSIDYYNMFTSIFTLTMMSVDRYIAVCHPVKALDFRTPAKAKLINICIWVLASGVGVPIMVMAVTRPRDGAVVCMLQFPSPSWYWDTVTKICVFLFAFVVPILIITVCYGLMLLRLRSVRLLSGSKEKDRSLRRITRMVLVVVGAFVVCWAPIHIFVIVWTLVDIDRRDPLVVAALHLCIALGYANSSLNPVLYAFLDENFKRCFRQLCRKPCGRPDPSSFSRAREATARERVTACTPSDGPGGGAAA
Chain of 5-hydroxytryptamine receptor 2B (P41595 whole entry): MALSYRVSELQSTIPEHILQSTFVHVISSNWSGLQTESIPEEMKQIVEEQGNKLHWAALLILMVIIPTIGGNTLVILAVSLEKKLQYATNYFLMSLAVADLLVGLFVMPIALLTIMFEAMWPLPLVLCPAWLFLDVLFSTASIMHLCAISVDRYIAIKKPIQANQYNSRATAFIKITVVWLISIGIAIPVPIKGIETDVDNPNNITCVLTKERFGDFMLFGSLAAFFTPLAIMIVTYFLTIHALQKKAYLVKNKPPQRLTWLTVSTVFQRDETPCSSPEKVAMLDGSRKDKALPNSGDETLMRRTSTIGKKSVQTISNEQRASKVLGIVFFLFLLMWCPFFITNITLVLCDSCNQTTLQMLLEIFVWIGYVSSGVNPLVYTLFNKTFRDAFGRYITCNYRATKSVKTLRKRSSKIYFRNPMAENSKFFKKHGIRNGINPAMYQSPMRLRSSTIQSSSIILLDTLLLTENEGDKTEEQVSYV
Chain of cGMP-inhibited 3',5'-cyclic phosphodiesterase 3A (Q14432 whole entry): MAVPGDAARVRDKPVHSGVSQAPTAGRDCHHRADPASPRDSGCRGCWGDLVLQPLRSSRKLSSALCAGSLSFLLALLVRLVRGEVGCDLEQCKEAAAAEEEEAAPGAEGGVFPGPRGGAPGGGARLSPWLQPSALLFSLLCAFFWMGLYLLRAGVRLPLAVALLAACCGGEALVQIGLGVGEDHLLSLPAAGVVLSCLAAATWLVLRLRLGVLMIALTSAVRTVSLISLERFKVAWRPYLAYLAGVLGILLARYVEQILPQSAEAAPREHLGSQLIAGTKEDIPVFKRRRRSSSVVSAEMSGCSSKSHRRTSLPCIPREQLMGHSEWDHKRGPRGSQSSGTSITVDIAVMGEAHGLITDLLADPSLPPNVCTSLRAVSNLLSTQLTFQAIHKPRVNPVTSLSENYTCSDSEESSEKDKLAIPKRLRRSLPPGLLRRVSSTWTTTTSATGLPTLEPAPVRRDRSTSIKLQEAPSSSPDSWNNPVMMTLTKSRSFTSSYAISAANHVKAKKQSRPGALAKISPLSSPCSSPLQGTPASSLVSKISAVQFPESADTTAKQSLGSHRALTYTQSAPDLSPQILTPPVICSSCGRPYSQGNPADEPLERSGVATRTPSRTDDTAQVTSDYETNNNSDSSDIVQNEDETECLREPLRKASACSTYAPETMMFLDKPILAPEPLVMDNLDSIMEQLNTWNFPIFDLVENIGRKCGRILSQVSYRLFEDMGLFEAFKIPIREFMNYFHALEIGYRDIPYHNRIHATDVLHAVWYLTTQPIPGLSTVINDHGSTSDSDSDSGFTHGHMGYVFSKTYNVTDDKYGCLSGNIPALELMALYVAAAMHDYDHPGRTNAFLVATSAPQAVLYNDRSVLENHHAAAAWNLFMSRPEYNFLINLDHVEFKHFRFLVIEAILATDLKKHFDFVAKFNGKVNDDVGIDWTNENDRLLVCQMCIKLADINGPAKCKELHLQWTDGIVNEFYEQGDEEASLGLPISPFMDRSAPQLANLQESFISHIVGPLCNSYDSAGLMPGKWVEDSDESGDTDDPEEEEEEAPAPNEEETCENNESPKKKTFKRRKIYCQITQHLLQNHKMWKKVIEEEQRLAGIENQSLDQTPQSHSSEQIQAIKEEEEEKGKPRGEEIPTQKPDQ

For the compound `CN1CCC[C@@H]1Cc1c[nH]c2ccc(CCS(=O)(=O)c3ccccc3)cc12`, the AC50 – broadly, the concentration giving half of the maximal activity seen – in assay [1] is over 30 µM.
In turn, `COc1nccnc1NS(=O)(=O)c1ccc(N)cc1` showed an AC50 in [1] of over 30 µM.
Turning to `O=C(Nc1cccc2c(=O)cc(-c3nnn[nH]3)oc12)c1ccc(OCCCCc2ccccc2)cc1`, the AC50 in assay [1] is over 30 µM.
As for `NC(=O)c1nc(F)c[nH]c1=O`, the AC50 in [1] is over 30 µM.
Take `CCc1oc2ccccc2c1C(=O)c1cc(Br)c(O)c(Br)c1` [BENZBROMARONE]: the AC50 is 26 µM in assay [2]; over 30 µM in [3]; 1.53 µM in assay [4]; 11 µM in assay [5]; over 30 µM in [6]; over 10 µM in assay [7]. Moreover, the concentration at half-maximal activity (AC50) in assay [8] was over 30 µM; in assay [9], 9.4 µM.
Compound `Cc1ccc([C@@H]2O[C@H](CO)[C@@H](O)[C@H](O)[C@H]2O)cc1Cc1ccc(-c2ccc(F)cc2)s1` [CANAGLIFLOZIN ANHYDROUS] displayed an AC50 in [1] of over 30 µM.
For `CO/N=C(\C(=O)N[C@@H]1C(=O)N2C(C(=O)O)=C(COC(N)=O)CS[C@H]12)c1ccco1` [CEFUROXIME], the AC50 in assay [2], in assay [3], in [4], in assay [5], in assay [6] and in assay [7] was over 30 µM in each case. Further, the AC50 in assay [8] and in assay [9] was over 30 µM throughout.
Regarding `[H]/N=C(\N/C(=N/[H])NCCCCCCNC(=N)NC(=N)Nc1ccc(Cl)cc1)Nc1ccc(Cl)cc1` [CHLORHEXIDINE], the half-maximal activity concentration (AC50) was 1.8 µM in assay [2]; 8.3 µM in [3]; 1.26 µM in assay [4]; over 30 µM in assay [5]; over 10 µM in assay [6]; 3.99 µM in [7]. Further, the results for the AC50 in assay [8] and in assay [9] were over 30 µM and 11 µM, respectively.
`CN(C)CCN(Cc1ccc(Cl)cc1)c1ccccn1` [CHLOROPYRAMINE] yielded a concentration at half-maximal activity (AC50) in assay [1] of over 30 µM.
In assay [1], `O=C(O)c1cc(=O)c2ccccc2o1` [CHROMOCARB] came in with a half-maximal activity concentration (AC50) of over 30 µM.
For `Clc1cccc(Cl)c1N=C1NCCN1` [CLONIDINE], the AC50 was over 10 µM in assay [3]; over 10 µM in assay [4]; over 30 µM in assay [5]; over 30 µM in [6]; over 30 µM in [8]; over 30 µM in assay [9].
In the case of `COC(=O)[C@H](c1ccccc1Cl)N1CCc2sccc2C1` [CLOPIDOGREL], the AC50 was over 30 µM in assay [2]; over 30 µM in assay [3]; 2 µM in assay [4]; over 30 µM in assay [5]; over 30 µM in assay [6]; 14.9 µM in assay [7]. The AC50 in assay [8] and in assay [9] was over 30 µM throughout.
Take `Nc1nc(O)c2ncn(COC(CO)CO)c2n1` [GANCICLOVIR]: the AC50 in assay [2], in [3], in [4], in [5], in assay [6] and in [7] was over 30 µM throughout. The AC50 in assay [8] and in [9] was over 30 µM each time.
As to `Cc1cnc(NC(=O)C2=C(O)c3ccccc3S(=O)(=O)N2C)s1` [MELOXICAM], the concentration at half-maximal activity (AC50) in [2] was over 10 µM; in [3], over 10 µM; in assay [4], over 10 µM; in [5], over 30 µM; in [6], over 10 µM; in [7], over 10 µM. Moreover, the AC50 is over 30 µM in assay [8] and over 10 µM in [9].
With `CC(=O)/N=c1/sc(S(N)(=O)=O)nn1C` [METHAZOLAMIDE], the AC50 in assay [2] was over 10 µM; in assay [3], over 10 µM; in assay [4] it was over 10 µM; in assay [5] it was over 10 µM; in assay [6], over 30 µM; in [7], over 10 µM. The AC50 is over 10 µM in assay [8] and over 30 µM in [9].
`CNCCC=C1c2ccccc2CCc2ccccc21` [NORTRIPTYLINE]: the AC50 is 8 µM in [3]; 0.73 µM in [4]; over 30 µM in assay [5]; over 30 µM in [6]; over 30 µM in assay [8].
In the case of `COc1ccnc(C[S+]([O-])c2nc3ccc(OC(F)F)cc3[nH]2)c1OC` (configuration not stated) [PANTOPRAZOLE], the AC50 in assay [2] was over 10 µM; in assay [3], over 10 µM; in assay [4], over 10 µM; in [5] it was over 30 µM; in assay [6], over 30 µM; in assay [7] it was over 10 µM. Moreover, the AC50 in assay [8] and in assay [9] was over 30 µM in each case.
For `O=C1NC(=O)C(c2ccccc2)(c2ccccc2)N1` [PHENYTOIN], the concentration at half-maximal activity (AC50) in assay [2] is over 30 µM; in assay [3], over 30 µM; in [4] it was over 30 µM; in [5], over 30 µM; in [6], over 30 µM; in assay [7], over 10 µM. Besides, the AC50 in [8] and in [9] was over 30 µM throughout.
Turning to `CC(C)C[C@H](CN)CC(=O)O` [PREGABALIN], the AC50 in assay [2], in assay [3], in assay [4], in assay [5], in assay [6] and in assay [7] was over 30 µM in each case. In addition, the AC50 in [8] and in [9] was over 30 µM each time.
On to `CC(C)N(CCCCOCC(=O)NS(C)(=O)=O)c1cnc(-c2ccccc2)c(-c2ccccc2)n1` [SELEXIPAG], for which the AC50 in assay [2] is over 30 µM; in [3], 24 µM; in [4] it was 12 µM; in assay [5], over 30 µM; in assay [6], 25 µM; in assay [7], 29 µM. Moreover, the AC50 in [8] and in assay [9] was over 30 µM in each case.
As for `CC(=O)S[C@@H]1CC2=CC(=O)CC[C@]2(C)[C@H]2CC[C@@]3(C)[C@@H](CC[C@@]34CCC(=O)O4)[C@H]12` [SPIRONOLACTONE], the AC50 in [2] was over 30 µM; in [3], over 30 µM; in assay [4], 29 µM; in assay [5], 0.19 µM; in [6], over 30 µM; in assay [7], 14.8 µM. The AC50 in assay [8] and in [9] was over 30 µM in each case.
For `Cc1cc(CC(=O)O)n(C)c1C(=O)c1ccc(Cl)cc1` [ZOMEPIRAC], the AC50 in [2], in assay [3], in assay [4], in assay [5], in assay [6] and in assay [7] was over 30 µM each time. The half-maximal activity concentration (AC50) in assay [8] and in assay [9] was over 30 µM in each case.
